# Source: patent US12667582B2, “Composition containing 2′-FL for ameliorating, preventing or treating diseases caused by reduction of dopamine” (priority 2022, dated 2026)
# Assays:
# [1] = system: dopaminergic neuron culture from ventral mesencephalon tissue; assay: 6-OHDA-mediated dopaminergic degeneration in primary ventral mesencephalon neuron culture (tyrosine hydroxylase immunocytochemistry); type: cell-based, Sprague-Dawley rats; settings: 6-OHDA 100 μM alone, 48 hours, FIG. 2
# Experimental: Dopaminergic neuron culture was prepared from ventral mesencephalon tissue of E14-E15 embryos obtained from pregnant Sprague-Dawley rats. Specifically, the dissected ventral brain tissue was pooled and agitated for 15 minutes at 37° C. to separate the cells in pre-warmed trypsin EDTA (025%) and then the cells were washed with DMEM (Dulbecco's modified Eagle medium)/F12 culture medium. After washing, essential growth factors were added thereto, followed by culturing. 50% of the culture medium was replaced with fresh culture medium on the 3rd and 5th days of culture and the result was allowed to stand. From the 7th day of culture, antioxidant factors were excluded.
# In addition, on the 10th day of culture, the neurotoxic substances 6-OHDA and 6-OHDA+2′-FL were added to the cells. After 48 hours, the cells were immobilized using 4% PFA (paraformaldehyde; Sigma-Aldrich) (FIG. 1). FIG. 1 illustrates the timeline of an in vitro experiment.
# The viability rate of dopamine cells was determined from the immobilized cells using immunocytochemistry using tyrosine hydroxylase. Six samples were used for each group. The composition of each group is shown in Table 1 below and the number of cells was 1×10^6 which was constant for each group.
# [2] = system: TH (+) cells in the substantia nigra; assay: Tyrosine hydroxylase (TH) immunohistochemistry of dopaminergic neurons in substantia nigra; type: in vivo, mouse; settings: 6-OHDA HBr injected into left striatum; top of FIG. 6
# Experimental: The mouse was anesthetized with chloral hydrate (400 mg/kg, ip) and fixed in a stereotaxic frame. 6-OHDA HBr (276 μg/μl×5 μl) was injected through a Hamilton microsyringe into two left striatum sites (1 mm AP, […] relative to bregma and […] and 1 mm AP, […] relative to bregma and […]) for 4 minutes (Day 0). Then, the mouse recovered from anesthesia was maintained at body temperature in a 37° C. incubator for 2 hours.
# 2′-FL (500 μM×20 μl) and saline (control; 20 μl) were injected into the nose from days 0 to 28. To determine whether or not Parkinson's disease was induced and to observe behavioral changes, methamphetamine was administered to […] and behavioral changes were observed on days 7, 21, and 28, respectively (FIG. 3). FIG. 3 illustrates the timeline of an in vivo experiment.
# After the rotation test, the animals were slaughtered and brain tissue was removed therefrom (Veh, n=5; 2′-FL, n=4). The distribution of dopaminergic neurons was measured by immunohistochemistry using tyrosine hydroxylase (TH).
# Specifically, the entire brain was sectioned to a thickness of 25 μm using a cryosection machine. […] The brain tissue was bound with a secondary antibody (concentration 1:500) and then was attached to a glass slide and expression was observed using a fluorescence microscope.
smiles,measurement,setting,value
NCCc1cc(O)c(O)cc1O [6-OHDA],decrease in dopamine cells compared to the normal cell group,[1],caused a severe decrease in dopamine cells
same,number of TH (+) cells in the substantia nigra after the toxin,[2],significantly reduced
